Entries after “also recorded” stand apart in the source; their conditions may differ.

For this experiment, the system named is 3T3-L1 preadipocytes. In words: Adipocyte differentiation / adipogenesis (Oil red-O staining, leptin and resistin ELISA). The class given is cell-based, murine. As for the experimental part:
3T3-L1 preadipocytes are stimulated to differentiate to a rounded phenotype and accumulate lipids in the form of lipid droplets when treated with dexamethasone, isobutylmethylxanthine (IBMX), and insulin [54]. The 3T3-L1 cells are primed for differentiation by the incubation with IBMX and dexamethasone, and in some cells insulin, for 24 hrs, then, insulin is withdrawn and replaced with various concentrations of NPY (FIG. 5).
ELISA: NPY ELISA system are purchased from Penninsula Laboratories, bFGF, VEGF and mouse leptin ELISA kits from R&D systems, mouse adiponectin ELISA kit from Linco Research and catecholamine detection system—3CAT EIA from Diagnostic Systems Laboratories. The assays are performed according to the manufacturers' procedures.
Oil Red O staining: Oil Red O solution (0.36% Oil Red O solution in 60% isopropanol) is used to stain lipid droplets in mature adipocytes and paraffin embedded tissues (Chemicon Adipogenesis Assay kit).
1. Cell culture: 3T3-L1 preadipocyte cells, (gift from Dr. Lane,^34) were cultured in DMEM high glucose media with glutamine, 10% calf sera (Gemini Bioproducts), d-Biotin (8 μg/ml) and Pantothenate (8 μg/ml) (Sigma). SK-N-BE(2) neuroblastoma cells (ATCC) were cultured in EMEM/F12K with 10% fetal bovine sera (FBS). HMVEC endothelial cells (Cambrex) were cultured in endothelial cell growth media (Cambrex). All media was supplemented with 100 units/ml penicillin, 100 μg/ml streptomycin and […] amphotericin. 2. Proliferation assay: Cells were plated onto 96-well dishes, growth-arrested in serum-free media for 24 h, and then were treated with the desired factors for 24 h in the culture media supplemented with 0.25% FBS; 4 hr after treatment 0.5 μCi [^3H] thymidine was added to each well. After 24 h, cells were harvested in a 96-well harvester (Tomtec) and counted in a Betaplate Liquid Scintillation Counter (Wallac). 3. Co-culture: For mitogenic assay and expression studies, co-culture was performed in a Costar Transwell system. Cells were plated on 6-well plates or inserts with 0.4 μm Polyester membranes. At 30% confluence, the inserts were combined with wells containing other cells. Co-culture of neuroblastomas with endothelial cells (EC) were carried out in EC media and preadipocytes in preadipocyte growth media. After the respective treatment, the cells growing on the plates were harvested for RNA isolation. For the mitogenic assay, cells were first growth-arrested in serum-free media for 24 hr, then the inserts placed into the plates and cells treated with desired factors in 0.25% FBS. After 48 hr, the cells were counted with a Beckman Coulter Counter. In both co-culture models, media was collected for Leptin (R&D Systems), Resistin (R&D Systems), and NPY (Bachem) ELISA. 4. Real-time RT-PCR: RNA was isolated using Tri Reagent (Sigma) and cDNA synthesized by iScript cDNA synthesis kit (BioRad). ICycler iQ Detection System (BioRad) was used to perform Real Time PCR. cDNA was amplified for 40 cycles using TaqMan PCR Reagent Kit and pre-designed primers and fluorescein-labeled probes from Applied Biosystems, as previously described^16, according to the manufacturer's procedure. The results were analyzed using software provided by BioRad and expression levels calculated by the comparative CT method using β-actin as an endogenous reference gene, according to the Applied Biosystems' ABI PRISM 7700 User Bulletin #2. 5. TUNEL: TUNEL reaction was performed using In Situ Cell Detection Kit (Roche Diagnostic) and signal converted to visible light using AP-converter. The density of TUNEL positive cells will be measured using NIH ImageJ software (using a plugin written by Wayne Rasband). 6. ELISA: ELISA kits for: NPY (Bachem Laboratories), mouse Leptin, Corticosterone, and Resistin (R&D systems), rat/mouse Insulin and mouse Adiponectin (Linco Research), and mouse Osteocalcin (Biomedical Technologies, Inc.) were used. The assays were performed according to the manufacturers' procedures. 7. […]

Consider `N=C(N)NCCC[C@H](NC(=O)CC1(CC(=O)N2CCN(C3c4ccccc4NC(=O)c4ccccc43)CC2)CCCC1)C(=O)NCCn1c(=O)n(-c2ccccc2)n(-c2ccccc2)c1=O` (stereo partly drawn) [BIIE0246], for which, where the note is “Y2R antagonist”, the “block of NPY-induced leptin and resistin secretion and lipid filling” value is listed as “blocked”.

Turning to neuropeptide Y [NPY], where the note is “NPY by itself”, the “adipogenesis in cells not originally primed by insulin” value was “unable to stimulate adipogenesis”. For the same compound, where the note is “differentiated 3T3-L1 adipocytes”, the leptin secretion entry is “increases leptin secretion; also recorded: increased”. For the same compound, the “differentiation into adipocytes (adipogenesis)” value (insulin preconditioned / primed 3T3-L1 cells, NPY 1×10-14 to 1×10^-8 M) is recorded as “stimulated differentiation into adipocytes; also recorded: stimulating adipogenesis”. Moreover, where the note is “preadipocytes primed for differentiation”, the resistin secretion result is listed as “increased”. Moreover, the “lipid deposition / lipid filling (Oil red-O staining)” value (primed 3T3-L1 cells, insulin replaced with NPY) is listed as “markedly increased”.

The values above are taken from patent US20090317376A1, “Compositions And Methods For Lipo Modeling” (Georgetown University MEDICAL SCHOOL, priority 2005, published 2009).
